Values of other authors, collected in PMC11659887 (ACS Bio & Med Chem Au, 2024).

Tested on: SARS-CoV-2 M^pro E166Q

CC(C)(C)[C@H](NC(=O)C(F)(F)F)C(=O)N1C[C@H]2[C@@H]([C@H]1C(=O)N[C@H](C#N)C[C@@H]1CCNC1=O)C2(C)C [nirmatrelvir, Nirmatrelvir]
resistance to nirmatrelvir: no significant resistance
